Measured values from PMC9101642 (Molecules, 2022).
Marks after values point to notes of the source that are not given here.

Legend:
[1] = Plasma protein binding determination; assay type: in vitro ADME, rat; details: rat plasma, 37 °C, read-out: Rat PPB (%free)
Procedure, shortened: (§1)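 Mammary tumours induced in rats by MNU 50 mg/kg i.p. at day 50; after two weeks, compounds given orally at 5 or 50 mg/kg once daily for six weeks. Serum AST, ALT (340 nm), ALP (405 nm) and bilirubin measured; liver homogenate GSH, CAT, MDA by colorimetry; plasma binding by ultrafiltration at 37°C with BCA protein read-out.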

[2] = test system: p53 promoter activity (p21 promoter); test: qChIP of ERα-p53 interaction on the p21 promoter in MCF-7; assay type: cell-based, human
[3] = Pharmacokinetics study, oral bioavailability; details: rat
[4] = rat, in vivo
ERα [5] = target: T1, ERα (Homo sapiens, UniProt P03372); test: Fluorescence polarization competition assay: antagonistic potency and relative binding affinity
T1 sequence (P03372 1-595): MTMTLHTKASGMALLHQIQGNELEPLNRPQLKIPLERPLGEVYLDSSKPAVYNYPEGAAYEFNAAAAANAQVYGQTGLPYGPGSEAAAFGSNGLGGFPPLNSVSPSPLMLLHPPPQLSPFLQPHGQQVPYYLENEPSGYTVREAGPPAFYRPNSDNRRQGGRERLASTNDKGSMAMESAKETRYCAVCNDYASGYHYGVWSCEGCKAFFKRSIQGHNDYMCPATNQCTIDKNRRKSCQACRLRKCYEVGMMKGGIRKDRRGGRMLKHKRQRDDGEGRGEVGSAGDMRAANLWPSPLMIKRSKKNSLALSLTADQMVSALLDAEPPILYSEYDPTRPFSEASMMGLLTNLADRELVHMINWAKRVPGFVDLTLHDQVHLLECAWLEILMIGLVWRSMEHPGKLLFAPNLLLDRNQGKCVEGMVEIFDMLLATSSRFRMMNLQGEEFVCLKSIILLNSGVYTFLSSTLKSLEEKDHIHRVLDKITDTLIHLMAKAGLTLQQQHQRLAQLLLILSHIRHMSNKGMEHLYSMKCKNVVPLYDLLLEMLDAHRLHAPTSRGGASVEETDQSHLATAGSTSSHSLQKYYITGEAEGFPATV

ERβ = ERβ (Homo sapiens, UniProt Q92731); test: as above
Sequence of ERβ (Q92731 whole entry): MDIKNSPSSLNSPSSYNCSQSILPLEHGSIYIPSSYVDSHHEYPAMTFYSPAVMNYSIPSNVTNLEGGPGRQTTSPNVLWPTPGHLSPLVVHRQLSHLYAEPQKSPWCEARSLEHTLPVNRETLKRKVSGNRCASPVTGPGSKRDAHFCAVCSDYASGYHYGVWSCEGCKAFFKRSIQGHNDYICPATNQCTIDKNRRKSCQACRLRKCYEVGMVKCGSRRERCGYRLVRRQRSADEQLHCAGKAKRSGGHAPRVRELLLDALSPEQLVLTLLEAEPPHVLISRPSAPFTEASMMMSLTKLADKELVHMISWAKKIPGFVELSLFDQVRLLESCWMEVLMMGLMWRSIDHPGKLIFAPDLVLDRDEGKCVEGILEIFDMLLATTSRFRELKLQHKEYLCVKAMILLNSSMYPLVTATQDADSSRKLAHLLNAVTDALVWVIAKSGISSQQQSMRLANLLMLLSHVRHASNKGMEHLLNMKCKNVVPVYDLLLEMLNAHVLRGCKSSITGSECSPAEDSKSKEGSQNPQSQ

MDA-MB-231 cell lines = test: MTT antiproliferative assay; assay type: cell-based, human; details: Homo sapiens, MDA-MB-231; growth inhibition, 48 h; read-out: MDA-MB-231 (IC50 nM)
MCF-7 cells = test: Cell cycle distribution by flow cytometry; assay type: cell-based, human; details: 24 h
ERα [6] = target: T1, ERα; test: ERα down-regulation immunofluorescence assay in MCF-7; assay type: cell-based; details: ERα downregulation measured in MCF-7; read-out: MCF-7 DR (IC50 nM)
[7] = test system: MNU-induced breast cancer; test: In vivo anticancer screening, MNU-induced mammary tumorigenesis; parameters: species or system female Wistar rats
[8] = test system: progesterone receptor (PR); test: ERα functional antagonism cell assay (PR as biomarker) in MCF-7; assay type: cell-based; details: Homo sapiens, MCF7; progesterone receptor as biomarker for ERα antagonism in MCF-7
[9] = Liver oxidative stress markers after treatment of MNU-induced rats; assay type: in vivo, Wistar rats; details: liver; for CAT: catalase activity; for GSH: reduced glutathione; for SOD (U/mg): superoxide dismutase activity; for TP: total protein content
Procedure, shortened: as §1

MCF-7 cell lines = test: MTT antiproliferative assay; assay type: cell-based, human; details: Homo sapiens, MCF7; growth inhibition, 48 h; read-out: MCF-7 (IC50 nM)
[10] = Lipophilicity by shake-flask method; details: pH 7.4
[11] = log of % relative binding affinity, estradiol = 100%
[12] = dose 50 mg/kg (compounds per os after MNU; MNU alone i.p.)

CC(=O)c1cc(C(=O)O[C@@H]2/C=C/C(=O)O[C@@H](O)CCC/C=C/[C@@H]3C[C@H](O)C[C@H]32)ccc1OCCN1CCCC(O)C1=O (stereo partly drawn) [Compound 3DPQ-12, (1R,2E,6R,10E,11aS,13S,14aR)-6,13-dihydroxy-4-oxo-4,6,7,8,9,11a,12,13,14,14a-decahydro-1H-cyclopenta[f][1]oxacyclotridecin-1-yl 3-acetyl-4-(2-(3-hydroxy-2-oxopiperidin-1-yl)ethoxy)benzoate]
fraction unbound at 5 mg/kg bwt ([1]; 5 mg/kg): 0.0124 | fraction unbound at 50 mg/kg bwt ([1]; 50 mg/kg): 0.0131 | p53 promoter activity, fold higher than the one provoked by Ral ([2]; higher concentration (1 nM)): 0.55 fold | p53 promoter activity, fold higher than the one provoked by Ral ([2]; lower concentration (0.1 nM)): 0.65 fold | BIO ([3]; oral 5 mg/kg): 93 ^‡ | BIO ([3]; oral 50 mg/kg): 96 | WL after MFD (day 1, mg) [4]: 305.06 ± 0.94 mg | Ki (ERα [5]; calculated antagonistic (inhibitory) constant, read-out: Ka ERα): 0.09 nM | IC50 (ERα [5]; concentration that antagonizes 50% of ERα signaling activity, read-out: ERα (IC50 nM)): 0.4 ± 0.43 nM | logRBA ERα (ERα [5]; [11]): 2.35 ^†,‡,§ | ERα potency, fold higher than Ral (ERα [5]; ratio of IC50 values): 1.85 fold | Ki (ERβ; calculated antagonistic (inhibitory) constant, read-out: Ka ERβ): 50.3 nM | IC50 (ERβ; concentration that antagonizes 50% of ERβ signaling activity, read-out: ERβ (IC50 nM)): 89.45 ± 0.31 nM | logRBA ERβ (ERβ; [11]): 0.00 ^†,‡,§ | IC50 (MDA-MB-231 cell lines): 82.84 ± 0.61 nM | Cell Cycle (%) G0/G1 (MCF-7 cells; 0.1 nM): 77.83 ± 0.92 *^,†,‡,§ % | Cell Cycle (%) G2/M (MCF-7 cells; 0.1 nM): 5.21 ± 2.54 *^,†,‡,§ % | Cell Cycle (%) S (MCF-7 cells; 0.1 nM): 16.96 ± 1.23 *^,†,‡,§ % | Cell Cycle (%) G0/G1 (MCF-7 cells; 1 nM): 80.29 ± 1.24 *^,†,‡,§ % | Cell Cycle (%) G2/M (MCF-7 cells; 1 nM): 2.05 ± 1.43 *^,†,‡,§ % | Cell Cycle (%) S (MCF-7 cells; 1 nM): 17.67 ± 1.32 *^,†,‡,§ % | IC50 (ERα [6]): > 100 nM | Tumor Burden (week) ([7]; dose 5 mg/kg per os after MNU): 2.24 ± 0.54 *^,†,‡,‖ week | Tumor Latency (week) ([7]; dose 5 mg/kg per os after MNU): 12 *^,†,‡ week | Tumor Volume (mm^3) ([7]; dose 5 mg/kg per os after MNU): 0.67 ± 0.22 *^,†,‡,‖ mm^3 | Tumor Burden (week) [7, 12]: 0.94 ± 0.35 *^,†,§,┴ week | Tumor Latency (week) [7, 12]: 15 *^,†,§ week | Tumor Volume (mm^3) [7, 12]: 0.34 ± 0.11 *^,†,§,┴ mm^3 | IC50 [8]: > 100 nM | CAT ([9]; dose 5 mg/kg): 14.55±0.51 | CAT ([9]; dose 50 mg/kg): 19.46±0.75 | TBARS ([9]; dose 5 mg/kg): 0.92 nmol/mg | TBARS ([9]; dose 50 mg/kg): 1.05 nmol/mg | GSH ([9]; dose 5 mg/kg): 8.96 mg/g | GSH ([9]; dose 50 mg/kg): 9.02 mg/g | SOD (U/mg) ([9]; dose 5 mg/kg): 5.43±0.25 U/mg | SOD (U/mg) ([9]; dose 50 mg/kg): 13.32±0.43 U/mg | TP ([9]; dose 5 mg/kg): 336.12 g/L | TP ([9]; dose 50 mg/kg): 389.35 g/L | IC50 (MCF-7 cell lines): 0.56 ± 0.11 nM | logD at 30 min [10]: 2.06
